Assay results published in patent US20180092920A1, “METHOD FOR TREATING TAU PROTEIN-MEDIATED DEGENERATIVE NEURONAL DISEASE” (SEOUL NATIONAL UNIVERSITY R&DB FOUNDATION, priority 2012, published 2018).

Legend:
HT22 cells = details: 25 iM roscovitine, 1 μM U0126, 24 hours
Protocol: Examined was a cell death level of neuronal cells containing a lot of aggregated and hyperphosphorylated tau due to ALK. HT22 cells were cotransfected with pALK.Fc or pALK.Fc KD construct and pGFP or pGFP-tau construct, and cultured for 24 to 96 hours. Cell death was measured by staining cells with ethidium homodimer (EtHD) and then counting GFP-positive cells indicating condensed and fragmented nuclei.
To examine downstream kinase of ALK-mediated tau neurotoxicity, the present inventor used a kinase inhibitor. HT22 cells were cotransfected with pALK.Fc and pGFP-tau constructs, and then treated with mock (Mock), 25 iM roscovitine (Ros), 1 μM U0126 (U0126), or 10 mM LiCl for 24 hours. Thereafter, cell death was measured. For negative control, used was mock group in which none of a material was treated.

[1] = test system: ALK-mediated tau phosphorylation; details: for ALK-mediated tau phosphorylation: HT22 cells, pGFP-tau + pALK.Fc, 24 hours, dependent on treating amount
Protocol: In addition, examined was influence of a tau kinase specific inhibitor on ALK-induced tau phosphorylation. […] Thereafter, western bolt was performed using the cell extract. The used antibodies are as follow: PHF-1 (p-Ser396/404; Davies), CP13 (p-S202; Davies), MC-1 (conformational change; Davies), P35/25 (Cell signaling, #2680), TG5 (220-240; generously provided by Dr. Peter Davies, Albert Einstein College of Medicine, NY), -actin (Sigma, A2668), ERK (Cell signaling, #9102), p-ERK (Cell signaling, #9101), GSK3β (BD Biosciences, 610201), and p-GSK3β (p-Ser9; Cell signaling, #9323).

HT22/Tau #1 cells = assay: Cell death of HT22/Tau #1 cells transfected with ALK.Fc and treated with ALK inhibitor (fluorescence microscopy, cell morphology); format: cell-based, mouse; details: 20 nM, 24 hours; decreased from 42% without inhibitor
Protocol: Then, cell death was determined through a fluorescence microscopy based on cell morphology. Thereafter, cells were extracted and phosphorylation of tau, ERK, CDK5 and ALK was measured through western blot using respective antibodies. The error bar of the graph indicates mean±S.D. (n=4).

[2] = test system: HT22/Tau #1 transformed cell line; assay: Neurite growth and cell viability in HT22/Tau #1 cells by fluorescence microscopy; format: cell-based, mouse; details: 25 μM pretreatment, 24 hours, neuronal cells expressing tau and ALK.Fc
Protocol: A HT22/Tau #1 transformed cell line was cotransfected with pGFP and pcDNA or pALK after pretreated with 25 μM of roscovitine. Thereafter, the resultant was cultured for 24 hours with/without doxycycline (Dox) treatment. Neurite growth and cell viability were measured through a fluorescence microscopy. Relative ratio of neurites was measured by the number of neuronal cells verses the length of neurites. Consequently, the reduction in neurite growth and the increase in cell death by ALK and tau in neuronal cells expressing tau and ALK.Fc were recovered through the CDK5 inhibitor, roscovitine, treatment (FIG. 9B).

[3] = test system: tau aggregation caused by ALK in HT22 cells; details: emodin, inhibitor of PHF aggregation; given with literature references; cited from earlier work
[4] = test system: tau protein phosphorylation; assay: Western blot of tau phosphorylation (PHF-1, Tau-1 antibodies) in HT22 cells cotransfected with pmALK and pGFP-tau; format: cell-based, mouse; details: pmALK + pGFP-tau, emodin treatment
Protocol: Subsequently, the present inventor examined aggregation and phosphorylation of tau caused by coexpression of mouse tau and mouse ALK as observed in Experimental Example 1-1 through treatment of an inhibitor of ERK activation and PHF aggregation. Specifically, HT22 cells were cotransfected with pmALK and pGFP-tau constructs, and condensation of cells depending whether emodin was treated or not was counted, wherein emodin is an inhibitor of ERK activation and PHF aggregation. Then, the cells were extracted to examine a phosphorylation level of tau protein by using PHF-1 antibody and Tau-1 antibody.

[5] = test system: tau aggregation caused by ALK in HT22 cells; assay: Tau aggregation in HT22 cells cotransfected with pmALK and pGFP-tau, counted by fluorescence microscopy; format: cell-based, mouse; details: pmALK + pGFP-tau, emodin treatment
Protocol: To examine whether mouse ALK increases aggregation and phosphorylation of tau, a pGFP-tau-based functional screening method of which availability was validated in the Experiment Example 1 was used. […] The transfection was performed while amounts of cotransfected pcDNA, pGSK3β CA, and pmALK constructs were increased to 100, 200, and 400 ng. After 24 hours of transfection, aggregation of tau was examined as the number of GFP-positive cells appeared to be aggregated by using a fluorescence microscopy. After then, the cells were extracted to examine phosphorylation of tau by analyzing PHF-1 protein expression with western blot. Subsequently, the present inventor examined aggregation and phosphorylation of tau caused by coexpression of mouse tau and mouse ALK as observed in Experimental Example 1-1 through treatment of an inhibitor of ERK activation and PHF aggregation. Specifically, HT22 cells were cotransfected with pmALK and pGFP-tau constructs, and condensation of cells depending whether emodin was treated or not was counted, wherein emodin is an inhibitor of ERK activation and PHF aggregation. Then, the cells were extracted to examine a phosphorylation level of tau protein by using PHF-1 antibody and Tau-1 antibody.

CDK5 = biological target: T1, CDK5 (Mus musculus, UniProt P49615); assay: ALK/Tau cell death in HT22 cells with CDK5 shRNA (LIVE/DEAD Viability/Cytotoxicity kit); format: cell-based; details: pGFP-tau + pALK.Fc + shRNA, 48 hours after transfection
T1 construct: endogenous in cells; host or cells: HT22 cells cotransfected with pGFP-tau, pALK.Fc and pCDK5 shRNA #1 or #2
T1 sequence (P49615 whole entry): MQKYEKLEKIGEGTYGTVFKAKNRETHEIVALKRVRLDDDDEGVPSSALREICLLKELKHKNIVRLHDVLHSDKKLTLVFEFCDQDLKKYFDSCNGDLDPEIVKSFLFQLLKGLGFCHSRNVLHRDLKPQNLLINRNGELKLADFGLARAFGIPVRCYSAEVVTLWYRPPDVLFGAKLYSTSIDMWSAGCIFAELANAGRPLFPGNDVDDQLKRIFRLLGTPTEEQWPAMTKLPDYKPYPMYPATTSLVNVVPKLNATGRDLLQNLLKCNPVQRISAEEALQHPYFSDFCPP
Protocol: Moreover, the present inventor observed neurotoxicity of ALK/Tau by using CDK5 shRNA. HT22 cells cotransfected with pGFP-tau and pALK.Fc constructs together with either pCDK5 shRNA #1 or #2. After 48 hours of the transfection, cell death was measured by using LIVE/DEAD Viability/Cytotoxicity kit (Molecular Probes). As the same as above experimental results, it was observed that cell death induced by ALK/Tau was reduced when endogenous CDK5 expression was inhibited using shRNA (FIG. 8D). The used pCDK5 shRNA #1 was characterized by having a polynucleotide having the nucleotide sequence of SEQ ID No. 1 (5′-[…]-3′), and pCDK5 shRNA #2 was characterized by having a polynucleotide having the nucleotide sequence of SEQ ID No. 2 (5′-[…]-3′). […] The results shown in FIGS. 8A to 8D were mean±S.D obtained by triplicate experiments.

TauC3 AD model mice = assay: Memory tests (Y-MAZE, novel object recognition, passive avoidance) in TauC3 AD model mice; format: in vivo, mouse; details: TauC3 mice one-month-old, icv injection 9 pg, after 17 days
Protocol: TauC3 mice, which were produced by the present inventor, are a tau Alzheimer's mouse model showing early memory defect by expressing tauC3 in a mouse brain, wherein the tauC3 has C-terminal of which 20 amino acids were eliminated by caspase-3 (see Korean Patent No. 1213325). […] After 17 days, memory was measured and compared by Y-MAZE (FIGS. 14A and 14B), novel object recognition (FIG. 14C) and passive avoidance test (FIG. 14D). Consequently, as shown in FIGS. 14A to 14D, memory of mock (a control) in TauC3 TG mice was remarkably declined while memory decline of the ALK inhibitor treating group was suppressed in all three types of behavior tests.

[6] = test system: tau phosphorylation and signaling proteins in brain; assay: Western blot of brain tissue (hippocampus) of TauC3 mice after the behavior tests; format: in vivo, mouse

Q: What does the source list for `N#CC(=C(/N)Sc1ccccc1N)/C(C#N)=C(\N)Sc1ccccc1N` [U0126]?
A: ALK.Fc/Tau-mediated neurotoxicity (cell death) (HT22 cells): partially reduced; ALK-mediated tau phosphorylation [1]: significantly reduced

Q: Which cell death (HT22/Tau #1 cells) does the source give for `COc1cc(N2CCC(N3CCN(C)CC3)CC2)ccc1Nc1ncc(Cl)c(Nc2ccccc2S(=O)(=O)C(C)C)n1` [NVP-TAE684] here?
A: Its cell death is 10%.

Q: With `CC[C@H](CO)Nc1nc(NCc2ccccc2)c2ncn(C(C)C)c2n1` [roscovitine] as the compound, how does the “ALK.Fc/Tau-mediated neurotoxicity (cell death)” value (HT22 cells) read?
A: The value was “significantly reduced”.

Q: What about the ALK-mediated tau phosphorylation [1] of the same compound?
A: Its ALK-mediated tau phosphorylation is “significantly reduced”.

Q: And the “increase in cell death by ALK and tau” value [2]?
A: The value was “recovered”.

Q: And the “reduction in neurite growth by ALK and tau” value [2]?
A: The value was “recovered”.

Q: With `Cc1cc(O)c2c(c1)C(=O)c1cc(O)cc(O)c1C2=O` [emodin] as the compound, how does the IC50 [3] read?
A: Its IC50 is 1 to 5 µM.

Q: And the “PHF-1 expression (phosphorylated tau)” value [4]?
A: The value was “decreasing”.

Q: What about the “tau-1 expression (unphosphorylated tau)” value [4] of the same compound?
A: The value was “increased”.

Q: And the “tau aggregation caused by ALK” value [5]?
A: The value was “inhibited”.

Q: For `[Cl-].[Li+]` [LiCl], which tau phosphorylation ([1]; both cells expressing pGFP-tau alone and coexpressing pGFP-tau and pALK.Fc, inhibition levels very similar) is on record?
A: Its tau phosphorylation is “inhibited”.

Q: With “pCDK5 shRNA #1: CDK5 shRNA having the nucleotide sequence of SEQ ID No. 1 (5′-TGACCAAGCTGCCAGACTA-3′)” as the compound, how does the “cell death induced by ALK/Tau” value (CDK5) read?
A: Its value is “reduced”.

Q: With “pCDK5 shRNA #2: CDK5 shRNA having the nucleotide sequence of SEQ ID No. 2 (5′-ACTCCACGTCCATCGACAT-3′)” as the compound, how does the “cell death induced by ALK/Tau” value (CDK5) read?
A: The value was “reduced”.

Q: What does the source list for `C[C@@H](Oc1cc(-c2cnn(C3CCNCC3)c2)cnc1N)c1c(Cl)ccc(F)c1Cl` [PF-2341066]?
A: memory decline in all three types of behavior tests (TauC3 AD model mice): suppressed; ERK1/2 activity in brain ([6]; TauC3 mouse brain): reduced; phosphorylation of tau in brain (PHF1, pT231, CP13, 12E8) ([6]; TauC3 mouse brain (hippocampus)): significantly inhibited
